Measured values reported in patent US6313095A, “Antiherpes tetrapeptide derivatives having a substituted aspartic acid side chain” (Boehringer Ingelheim (Canada), Ltd., priority 1989, dated 2001).
Where a SMILES comes first, the peptide text is derived from it. [ ]: non-standard residue; d: D form. The star is where a group is joined. ξ: configuration not given here. Asp(3,3-(CH2)4) = N[C@H](C(=O)O)C1(C(=O)O)CCCC1; Gly(1-COOH-cBu) = N[C@H](C(=O)O)C1(C(=O)O)CCC1; X1 = CC1CCC(C)C(C(=O)*)C1C(=O)OCCc1ccccc1; Benzoyl(2-Ph) = O=C(c1ccccc1-c1ccccc1)*; ξAsp(3,3-Me2) = CC(C)(C(=O)O)C(N)C(=O)O; X3 = O=C(CCc1ccccc1)C1CCCCC1C(=O)*; X5 = CC(C)C(CCCCc1ccccc1)C(=O)*; Butanoyl(2-Et) = CCC(CC)C(=O)*; O(2S-octyl) = CCCCCC[C@H](C)O*; Tle = CC(C)(C)[C@H](N)C(=O)O; Leu(ol) = CC(C)C[C@H](N)CO; Hiv = CC(C)[C@H](O)C(=O)O; Isovaleryl = CC(C)CC(=O)*; Morpholide = C1CN(*)CCO1; Pyrrolidide = C1CCN(*)C1; X6 = CCCCCCCCN(C)*; NEt2 = CCN(CC)*

target: T1, HSV-1 ribonucleotide reductase (Human herpesvirus 1, UniProt P08543); experiment: Inhibition of Herpes Simplex Virus (HSV, Type 1) Ribonucleotide Reductase; assay type: biochemical, herpes simplex virus type 1 (strain F); conditions: concentration producing 50% of the maximal inhibition of enzyme activity; partially purified enzyme; mean of four assays
T1 construct: HSV-1 ribonucleotide reductase (partially purified) was obtained from quiescent BHK-21/C13 cells infected with strain F HSV-1 virus; endogenous in cells; host or cells: quiescent BHK-21/C13 (hamster) cells infected with HSV-1 strain F; partially purified enzyme preparation
T1 sequence (P08543 whole entry): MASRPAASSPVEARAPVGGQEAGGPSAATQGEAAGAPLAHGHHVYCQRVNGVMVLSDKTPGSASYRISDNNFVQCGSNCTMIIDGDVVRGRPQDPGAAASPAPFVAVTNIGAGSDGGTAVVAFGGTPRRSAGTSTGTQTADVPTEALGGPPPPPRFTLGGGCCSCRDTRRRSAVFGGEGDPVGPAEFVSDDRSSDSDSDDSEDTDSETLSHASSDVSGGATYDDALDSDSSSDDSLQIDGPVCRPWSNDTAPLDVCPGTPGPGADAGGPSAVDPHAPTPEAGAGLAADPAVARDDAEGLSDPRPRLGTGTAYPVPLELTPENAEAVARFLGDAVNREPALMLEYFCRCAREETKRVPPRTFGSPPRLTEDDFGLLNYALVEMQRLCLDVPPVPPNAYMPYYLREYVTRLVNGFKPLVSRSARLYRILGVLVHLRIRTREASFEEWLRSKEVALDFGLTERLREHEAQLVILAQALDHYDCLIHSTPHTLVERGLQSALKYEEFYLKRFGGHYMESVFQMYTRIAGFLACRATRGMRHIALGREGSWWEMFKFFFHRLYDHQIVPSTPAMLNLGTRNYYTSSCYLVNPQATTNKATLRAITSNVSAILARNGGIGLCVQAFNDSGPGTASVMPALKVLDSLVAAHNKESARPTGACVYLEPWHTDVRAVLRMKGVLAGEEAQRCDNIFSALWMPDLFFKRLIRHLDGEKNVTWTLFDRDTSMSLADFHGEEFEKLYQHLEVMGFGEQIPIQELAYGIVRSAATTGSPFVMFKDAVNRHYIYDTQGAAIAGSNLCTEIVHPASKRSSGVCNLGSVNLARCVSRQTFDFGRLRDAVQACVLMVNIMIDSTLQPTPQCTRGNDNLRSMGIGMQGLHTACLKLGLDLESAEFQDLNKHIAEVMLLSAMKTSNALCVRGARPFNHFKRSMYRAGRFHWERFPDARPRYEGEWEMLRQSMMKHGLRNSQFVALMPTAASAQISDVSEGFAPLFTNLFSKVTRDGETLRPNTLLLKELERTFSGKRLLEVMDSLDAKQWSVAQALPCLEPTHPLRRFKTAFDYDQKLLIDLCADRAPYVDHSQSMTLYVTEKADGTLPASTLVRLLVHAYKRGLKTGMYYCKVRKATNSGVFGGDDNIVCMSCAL
Text: Inhibition of Herpes Simplex Virus (HSV, Type 1) Ribonucleotide Reductase
HSV-1 ribonucleotide reductase (partially purified) was obtained from quiescent BHK-21/C13 cells infected with strain F HSV-1 virus at 10 plaque forming units/cell as described by E. A. Cohen et al., J. Gen. Virol., 66, 733 (1985).
b) Assay and Results for Exemplified Peptides
By following the procedure described by P. Gaudreau et al., J. Biol, Chem., 262, 12413 (1987), the assay results listed in the following table were obtained. The assay result for each peptide is expressed as the concentration of the peptide producing 50% of the maximal inhibition (IC50) of enzyme activity. The number of units of the enzyme preparation used in each assay was constant, based on the specific activity of the enzyme preparation. The results are relative to the activity obtained in control experiments without peptide and represent the mean of four assays that varied less than 10% with each other.

Going from CCC(CC)C(=O)N[C@H](C(=O)N[C@@H](CC(=O)N1CCCC1)C(=O)N[C@@H](CC(=O)O)C(=O)NCCC(C)(C)C)C1CCCC1 [(C2 H5)2 CHCO-Cpg-Asp(pyrrolidino)-Asp-NHCH2 CH2 C(CH)3] to CCC(CC)C(=O)N[C@H](C(=O)N[C@@H](CC(=O)N1CCCC1)C(=O)N[C@@H](CC(=O)O)C(=O)N[C@H](CO)[C@@H](C)CC)C(C)(C)C [(C2 H5)2 CHCO-Tbg-Asp(pyrrolidino)-Asp-(L-isoleucinol)], the IC50 falls from 35 µM to 11 µM (3.2-fold). The second is the more potent here.

CCCCC(C(=O)O)[C@H](NC(=O)[C@H](CC(=O)N1CCCC1)NC(=O)[C@@H](NC(=O)C(CC)CC)C(C)(C)C)C(=O)N[C@@H](CC(C)C)C(=O)O (some centres unmarked) [(C2 H5)2 CHCO-Tbg-Asp(pyrrolidino)-Asp(Bu)-Leu-OH] and CC(C)C[C@H](NC(=O)[C@H](CC(=O)O)NC(=O)[C@H](CC(=O)N1CCCC1)NC(=O)[C@@H](NC(=O)[C@@H](O)C(C)C)C(C)(C)C)C(=O)O [[(S)-(CH3)2 CHCH(OH)CO]-Tbg-Asp(pyrrolidino)-Asp-Leu-OH] (H-[Hiv][Tle]D(Pyrrolidide)DL-OH) are within 1.5-fold of each other in IC50: 2 µM for the first, 2.8 µM for the second.

Compared with CC[C@H](C)[C@H](NC(=O)CC(C)C)C(=O)N[C@@H](CC(=O)N1CCCC1)C(=O)N[C@@H](CC(=O)O)C(=O)N[C@@H](CC(C)C)C(=O)O [(CH3)2 CHCH2 CO-Ile-Asp(pyrrolidino)-Asp-Leu-OH] (Isovaleryl-ID(Pyrrolidide)DL-OH), CC[C@H](C)[C@H](NC(=O)C(CCCCc1ccccc1)C(C)C)C(=O)N[C@@H](CC(=O)N1CCCC1)C(=O)N[C@@H](CC(=O)O)C(=O)N[C@@H](CC(C)C)C(=O)O (stereo partly drawn) [[d,1-Ph(CH2)4 -CH[CH(CH3)2 ]CO]-Ile-Asp(pyrrolidino)-Asp-Leu-OH] (X5-ID(Pyrrolidide)DL-OH) is 2.1-fold lower in IC50: 2.7 µM for the first, 1.3 µM for the second. The second is the more potent here.

Compared with CCCCCC[C@H](C)OC(=O)C[C@H](NC(=O)[C@@H](NC(=O)C(CC)CC)C(C)(C)C)C(=O)N[C@H](C(=O)N[C@@H](CC(C)C)C(=O)O)C1(C(=O)O)CCCC1 [(C2 H5)2 CHCO-Tbg-Asp(1-methylheptyloxy)-Asp(cyPn)-Leu-OH] ({Butanoyl(2-Et)}-[Tle]D(O(2S-octyl))[Asp(3,3-(CH2)4)]L-OH), CCCCCCCCN(C)C(=O)C[C@H](NC(=O)[C@@H](NC(=O)C(CC)CC)C(C)(C)C)C(=O)N[C@H](C(=O)N[C@@H](CC(C)C)C(=O)O)C1(C(=O)O)CCC1 [(C2 H5)2 CHCO-Tbg-Asp(N-Me-N-octyl)-Asp(cyBu)-Leu-OH] ({Butanoyl(2-Et)}-[Tle]D(X6)[Gly(1-COOH-cBu)]L-OH) is 1.8-fold lower in IC50: 0.37 µM for the first, 0.2 µM for the second. The second is the more potent here.

Compared with CCC(CC)C(=O)N[C@H](C(=O)N[C@@H](CC(=O)N1CCCC1)C(=O)N[C@H](C(=O)N[C@H](CO)CC(C)C)C1(C(=O)O)CCCC1)C(C)(C)C [(C2 H3)2 CHCO-Tbg-Asp(pyrrolidino)-Asp(cyPn)-(L-leucinol)] ({Butanoyl(2-Et)}-[Tle]D(Pyrrolidide)[Asp(3,3-(CH2)4)][Leu(ol)]), CC[C@H](C)[C@H](NC(=O)c1ccccc1-c1ccccc1)C(=O)N[C@@H](CC(=O)N1CCCC1)C(=O)N[C@@H](CC(=O)O)C(=O)N[C@@H](CC(C)C)c1nnn[nH]1 [2-Biphenylcarbonyl-Ile-Asp(pyrrolidino)-Asp-NHCH--[CH2 CH(CH3)2-5-1H-tetrazole] is 28-fold higher in IC50: 0.5 µM for the first, 13.8 µM for the second.

In the case of CC[C@H](C)[C@H](NC(=O)c1ccccc1-c1ccccc1)C(=O)N[C@@H](CC(=O)N1CCOCC1)C(=O)N[C@@H](CC(=O)O)C(=O)N[C@@H](CC(C)C)C(=O)O [2-Biphenylylcarbonyl-Ile-Asp(morpholino)-Asp-Leu-OH] ({Benzoyl(2-Ph)}-ID(Morpholide)DL-OH), the IC50 is reported as 7.2 µM.

same assay, conditions: separated diastereoisomer, first eluted on HPLC (footnotes 1, 3); mean of four assays

First: CC[C@H](C)[C@H](NC(=O)C1CCCCC1C(=O)CCc1ccccc1)C(=O)N[C@@H](CC(=O)N(CC)CC)C(=O)N[C@@H](CC(=O)O)C(=O)N[C@@H](CC(C)C)C(=O)O (stereo partly drawn) [[(d,1)-2-(3-Phenyl-1-oxopropyl)cyclohexanecarbonyl]-Ile-Asp(NEt2)-Asp-Leu-OH] (X3-ID(NEt2)DL-OH)
Second: CC[C@H](C)[C@H](NC(=O)C1C(C)CCC(C)C1C(=O)OCCc1ccccc1)C(=O)N[C@@H](CC(=O)N1CCCC1)C(=O)N[C@@H](CC(=O)O)C(=O)N[C@@H](CC(C)C)C(=O)O (stereo partly drawn) [[(d,1)1α,2α,3β,6β-3,6-Dimethyl-2-(phenylethoxycarbonyl)cyclohexanecarbonyl]-Ile-Asp(pyrrolidino)-Asp-Leu-OH] (X1-ID(Pyrrolidide)DL-OH)
The IC50 of the first is 2.8-fold higher: 1.4 µM for the first, 0.5 µM for the second.

same assay, conditions: separated diastereoisomer, first value listed (footnote 5, order not stated); mean of four assays

Work on CCC(CC)C(=O)N[C@H](C(=O)N[C@@H](CC(=O)N1CCCC1)C(=O)NC(C(=O)N[C@@H](CC(C)C)C(=O)O)C(C)(C)C(=O)O)C(C)(C)C (stereo partly drawn) [(C2 H5)2 CHCO-Tbg-Asp(pyrrolidino)-Asp(diMe)-Leu-OH] ({Butanoyl(2-Et)}-[Tle]D(Pyrrolidide)[ξAsp(3,3-Me2)]L-OH) yielded an IC50 of 0.14 µM.

same assay, conditions: separated diastereoisomer, second eluted on HPLC (footnotes 1, 3); mean of four assays

Compared with CC[C@H](C)[C@H](NC(=O)C1CCCCC1C(=O)CCc1ccccc1)C(=O)N[C@@H](CC(=O)N(CC)CC)C(=O)N[C@@H](CC(=O)O)C(=O)N[C@@H](CC(C)C)C(=O)O (stereo partly drawn) [[(d,1)-2-(3-Phenyl-1-oxopropyl)cyclohexanecarbonyl]-Ile-Asp(NEt2)-Asp-Leu-OH] (X3-ID(NEt2)DL-OH), CC[C@H](C)[C@H](NC(=O)C1C(C)CCC(C)C1C(=O)OCCc1ccccc1)C(=O)N[C@@H](CC(=O)N1CCCC1)C(=O)N[C@@H](CC(=O)O)C(=O)N[C@@H](CC(C)C)C(=O)O (stereo partly drawn) [[(d,1)1α,2α,3β,6β-3,6-Dimethyl-2-(phenylethoxycarbonyl)cyclohexanecarbonyl]-Ile-Asp(pyrrolidino)-Asp-Leu-OH] (X1-ID(Pyrrolidide)DL-OH) is 15-fold lower in IC50: 34 µM for the first, 2.3 µM for the second.

same assay, conditions: separated diastereoisomer, second value listed (footnote 5, order not stated); mean of four assays

With CCC(CC)C(=O)N[C@H](C(=O)N[C@@H](CC(=O)N1CCCC1)C(=O)NC(C(=O)N[C@@H](CC(C)C)C(=O)O)C(C)(C)C(=O)O)C(C)(C)C (stereo partly drawn) [(C2 H5)2 CHCO-Tbg-Asp(pyrrolidino)-Asp(diMe)-Leu-OH] ({Butanoyl(2-Et)}-[Tle]D(Pyrrolidide)[ξAsp(3,3-Me2)]L-OH) the IC50 was 9.1 µM.
